Data reported in PubChem BioAssay AID248 (DTP/NCI, 2004).
“And” between values parts separate entries of the source, which are not always exact repeats. Equal values may be shown once. Toxic doses and inconclusive results are not listed.

System: L1210 leukemia ip in BDF1 mice, survival T/C
Assay: NCI In Vivo Anticancer Drug Screen. Data for tumor model L1210 Leukemia (intraperitoneal) in B6D2F1 (BDF1) mice
Settings: endpoint: mean survival time, higher = longer survival
Method in brief: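 Tumor cells were implanted, animals were treated, and survival was followed. The result divides the treated measurement by the vehicle-control measurement.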

[1] = dose: 100.0 mg/kg/injection, schedule: Q01DX009 (ip), vehicle: Klucel (hydroxypropylcellulose) (HPC)
[2] = dose: 200.0 mg/kg/injection, schedule: Q01DX009 (ip), vehicle: Klucel (hydroxypropylcellulose) (HPC)
[3] = dose: 400.0 mg/kg/injection, schedule: Q01DX009 (ip), vehicle: Klucel (hydroxypropylcellulose) (HPC)
[4] = dose: 100.0 mg/kg/injection, schedule: Q04DX003 (ip), vehicle: Klucel (hydroxypropylcellulose) (HPC)
[5] = dose: 100.0 mg/kg/injection, schedule: Q04DX003 (ip), vehicle: saline with Tween-80
[6] = dose: 200.0 mg/kg/injection, schedule: Q04DX003 (ip), vehicle: saline with Tween-80

`c1ccc2cc3sccc3cc2c1` was tested, and the T/C [1] was 96 % of control, the T/C [2] was 95 % of control and the T/C [3] was 93 % of control.

With `O=[N+]([O-])c1ccc(CCc2ccc([N+](=O)[O-])cc2)cc1` the T/C (dose: 50.0 mg/kg/injection, schedule: Q01DX001 (ip), vehicle: other) was 91 % of control, the T/C (dose: 100.0 mg/kg/injection, schedule: Q01DX001 (ip), vehicle: other) was 95 % of control and the T/C (dose: 200.0 mg/kg/injection, schedule: Q01DX001 (ip), vehicle: other) was 97 % of control. The T/C (dose: 400.0 mg/kg/injection, schedule: Q01DX001 (ip), vehicle: other) was 95 % of control.

For `Cc1cc(C(C)(C)CC(C)(C)C)cc(O)c1O`, the T/C (dose: 100.0 mg/kg/injection, schedule: Q01DX009 (ip), vehicle: other) was 94 % of control, the T/C (dose: 100.0 mg/kg/injection, schedule: Q04DX003 (ip), vehicle: other) was 96 % of control and the T/C (dose: 200.0 mg/kg/injection, schedule: Q01DX009 (ip), vehicle: other) was 94 % of control. The T/C (dose: 200.0 mg/kg/injection, schedule: Q04DX003 (ip), vehicle: other) was 93 % of control, the T/C (dose: 400.0 mg/kg/injection, schedule: Q01DX009 (ip), vehicle: other) was 94 % of control and the T/C (dose: 400.0 mg/kg/injection, schedule: Q04DX003 (ip), vehicle: other) was 91 % of control.

`Cc1cccc(C2CCCC2c2ccccc2)c1` (stereo not given) was tested, and the T/C [1] was 96 % of control, the T/C [4] was 110 % of control and the T/C [2] was 89 % of control. The T/C (dose: 200.0 mg/kg/injection, schedule: Q04DX003 (ip), vehicle: Klucel (hydroxypropylcellulose) (HPC)) was 94 % of control, the T/C [3] was 101 % of control and the T/C (dose: 400.0 mg/kg/injection, schedule: Q04DX003 (ip), vehicle: Klucel (hydroxypropylcellulose) (HPC)) was 108 % of control.

In the case of `CC(=O)OC1=C2C(C)(CCC(OC(C)=O)C2(C)C)C2=C(C1=O)C1(C)CCC(C(C)CCCC(C)C)C1(C)CC2=O` (stereo not given), the T/C [5] is reported as 87 % of control and the T/C [6] is reported as 87 % of control.

`O=C(CCl)N(O)c1ccccc1OCc1ccccc1` was tested, and the T/C (dose: 100.0 mg/kg/injection, schedule: Q04DX003 (ip), vehicle: carboxymethylcellulose (CMC)) was 91 % of control and the T/C (dose: 200.0 mg/kg/injection, schedule: Q04DX003 (ip), vehicle: carboxymethylcellulose (CMC)) was 102 % of control.

`CSc1cc(C)n2nnnc2n1` was tested, and the T/C (dose: 12.5 mg/kg/injection, schedule: Q01DX001 (ip), vehicle: saline) was 100 % of control, the T/C (dose: 25.0 mg/kg/injection, schedule: Q01DX001 (ip), vehicle: saline) was 96 % of control and the T/C (dose: 50.0 mg/kg/injection, schedule: Q01DX001 (ip), vehicle: saline) was 100 % of control.

For `CCOc1ccc(Br)cc1C=O`, the T/C (dose: 100.0 mg/kg/injection, schedule: Q01DX009 (ip), vehicle: saline with Tween-80) was 97 % of control, the T/C [5] was 97 % of control and the T/C (dose: 200.0 mg/kg/injection, schedule: Q01DX009 (ip), vehicle: saline with Tween-80) was 91 % of control. For the same compound, the T/C [6] was 97 % of control, the T/C (dose: 400.0 mg/kg/injection, schedule: Q01DX009 (ip), vehicle: saline with Tween-80) was 91 % of control and the T/C (dose: 400.0 mg/kg/injection, schedule: Q04DX003 (ip), vehicle: saline with Tween-80) was 101 % of control.

In the case of `O=NN(CCCl)C(=O)Nc1ccc(Br)cc1`, the T/C (dose: 12.0 mg/kg/injection, schedule: Q01DX009 (ip), vehicle: carboxymethylcellulose (CMC)) is reported as 122 % of control, the T/C (dose: 12.0 mg/kg/injection, schedule: Q01DX015 (ip), vehicle: carboxymethylcellulose (CMC)) is reported as 124 % of control and the T/C (dose: 29.0 mg/kg/injection, schedule: Q01DX015 (ip), vehicle: carboxymethylcellulose (CMC)) is reported as 154 % of control. For the same compound, the T/C (dose: 44.0 mg/kg/injection, schedule: Q01DX015 (ip), vehicle: carboxymethylcellulose (CMC)) was 114 % of control and 89 % of control and the T/C (dose: 100.0 mg/kg/injection, schedule: Q01DX001 (ip), vehicle: carboxymethylcellulose (CMC)) was 157 % of control.

With `CCOC(=O)C1CN(CCc2ccccc2)CCC1=O` (stereo not given) the T/C (dose: 75.0 mg/kg/injection, schedule: Q01DX001 (ip), vehicle: saline) was 101 % of control, the T/C (dose: 75.0 mg/kg/injection, schedule: Q04DX003 (ip), vehicle: saline) was 100 % of control and the T/C (dose: 150.0 mg/kg/injection, schedule: Q01DX001 (ip), vehicle: saline) was 95 % of control. For the same compound, the T/C (dose: 150.0 mg/kg/injection, schedule: Q04DX003 (ip), vehicle: saline) was 100 % of control, the T/C (dose: 300.0 mg/kg/injection, schedule: Q01DX001 (ip), vehicle: saline) was 91 % of control and the T/C (dose: 300.0 mg/kg/injection, schedule: Q04DX003 (ip), vehicle: saline) was 108 % of control.

`Cc1ccc(S(=O)(=O)F)cc1C(=O)NCc1ccc(OCc2nc(N)nc(N)c2-c2ccc(Cl)c(Cl)c2)cc1` was tested, and the T/C (dose: 32.5 mg/kg/injection, schedule: Q01DX001 (ip), vehicle: Klucel (hydroxypropylcellulose) (HPC)) was 96 % of control, the T/C (dose: 65.0 mg/kg/injection, schedule: Q01DX001 (ip), vehicle: Klucel (hydroxypropylcellulose) (HPC)) was 96 % of control and the T/C (dose: 130.0 mg/kg/injection, schedule: Q01DX001 (ip), vehicle: Klucel (hydroxypropylcellulose) (HPC)) was 96 % of control.

For `CN(C)P1N(C)CCN1C`, the T/C (dose: 100.0 mg/kg/injection, schedule: Q01DX001 (ip), vehicle: saline) was 95 % of control, the T/C (dose: 200.0 mg/kg/injection, schedule: Q01DX001 (ip), vehicle: saline) was 106 % of control and the T/C (dose: 400.0 mg/kg/injection, schedule: Q01DX001 (ip), vehicle: saline) was 87 % of control.

In the case of `COc1ccccc1OCCOCCNC1CC2CCC1(C)C2(C)C` (stereo not given), the T/C [4] is reported as 88 % of control.
